Laboratory results published in the NIST ThermoML archive (doi:10.1016/j.jct.2012.09.012).
± gives the expanded uncertainty stated by the source.

Experiment: xn = mol fraction of the nth substance listed
Details: Liquid, Vibrating tube method

CC1=CC[C@H]2C[C@@H]1C2(C)C [(S)-2-pinene] + C=C1CCC2CC1C2(C)C
mass density [kg/m3]
Details | x1 = 0.1044 | x1 = 0.1926 | x1 = 0.3036 | x1 = 0.3949 | x1 = 0.502 | x1 = 0.6052 | x1 = 0.7022 | x1 = 0.7983 | x1 = 0.9028 | x1 = 1
283.15 K, 20000 kPa | 890.1 ± 1.1 | 889 ± 1.1 | 887.9 ± 1.1 | 886.9 ± 1.1 | 885.7 ± 1.1 | 884.7 ± 1.1 | 883.4 ± 1.2 | 882.3 ± 1.2 | 881.1 ± 1.2 | 880 ± 1.2
283.15 K, 25000 kPa | 893.1 ± 1.1 | 891.9 ± 1.1 | 890.9 ± 1.1 | 889.9 ± 1.1 | 888.7 ± 1.1 | 887.8 ± 1.1 | 886.6 ± 1.2 | 885.4 ± 1.2 | 884.3 ± 1.2 | 883.2 ± 1.2
283.15 K, 30000 kPa | 896 ± 1.1 | 894.8 ± 1.1 | 893.7 ± 1.1 | 892.9 ± 1.1 | 891.6 ± 1.1 | 890.7 ± 1.1 | 889.3 ± 1.2 | 888.5 ± 1.2 | 887.4 ± 1.2 | 886.3 ± 1.3
283.15 K, 35000 kPa | 898.9 ± 1.1 | 897.7 ± 1.1 | 896.7 ± 1.1 | 895.8 ± 1.1 | 894.7 ± 1.1 | 893.7 ± 1.2 | 892.5 ± 1.2 | 891.6 ± 1.2 | 890.3 ± 1.2 | 889.4 ± 1.3
283.15 K, 40000 kPa | 901.7 ± 1.1 | 900.6 ± 1.1 | 899.4 ± 1.1 | 898.6 ± 1.1 | 897.5 ± 1.1 | 896.6 ± 1.2 | 895.3 ± 1.2 | 894.6 ± 1.2 | 893.5 ± 1.3 | 892.5 ± 1.3
298.15 K, 20000 kPa | 879.6 ± 1.1 | 878.2 ± 1.1 | 876.9 ± 1.1 | 875.8 ± 1.1 | 874.6 ± 1.1 | 873.4 ± 1.1 | 872.3 ± 1.2 | 871.2 ± 1.2 | 870 ± 1.2 | 868.8 ± 1.2
298.15 K, 25000 kPa | 882.5 ± 1.1 | 881.3 ± 1.1 | 880 ± 1.1 | 879 ± 1.1 | 877.8 ± 1.1 | 876.7 ± 1.1 | 875.6 ± 1.2 | 874.5 ± 1.2 | 873.3 ± 1.2 | 872.1 ± 1.2
298.15 K, 30000 kPa | 885.3 ± 1.1 | 884.2 ± 1.1 | 883 ± 1.1 | 882 ± 1.1 | 880.8 ± 1.1 | 879.7 ± 1.1 | 878.8 ± 1.2 | 877.6 ± 1.2 | 876.4 ± 1.2 | 875.3 ± 1.3
298.15 K, 35000 kPa | 888.3 ± 1.1 | 887.3 ± 1.1 | 886.1 ± 1.1 | 885.1 ± 1.1 | 884 ± 1.1 | 882.9 ± 1.2 | 882 ± 1.2 | 880.8 ± 1.2 | 879.7 ± 1.2 | 878.6 ± 1.3
298.15 K, 40000 kPa | 891.1 ± 1.1 | 890.2 ± 1.1 | 889.1 ± 1.1 | 888 ± 1.1 | 887.1 ± 1.1 | 886 ± 1.2 | 885.1 ± 1.2 | 884 ± 1.2 | 882.9 ± 1.3 | 881.9 ± 1.3
313.15 K, 20000 kPa | 868 ± 1.1 | 867 ± 1.1 | 865.9 ± 1.1 | 864.9 ± 1.1 | 863.6 ± 1.1 | 862.6 ± 1.1 | 861.4 ± 1.2 | 860.3 ± 1.2 | 859 ± 1.2 | 858 ± 1.2
313.15 K, 25000 kPa | 871.4 ± 1.1 | 870.3 ± 1.1 | 869.2 ± 1.1 | 868.2 ± 1.1 | 867 ± 1.1 | 865.8 ± 1.1 | 864.7 ± 1.2 | 863.6 ± 1.2 | 862.4 ± 1.2 | 861.3 ± 1.2
313.15 K, 30000 kPa | 874.6 ± 1.1 | 873.5 ± 1.1 | 872.4 ± 1.1 | 871.4 ± 1.1 | 870.2 ± 1.1 | 869.1 ± 1.2 | 868 ± 1.2 | 866.9 ± 1.2 | 865.7 ± 1.2 | 864.7 ± 1.3
313.15 K, 35000 kPa | 877.8 ± 1.1 | 876.7 ± 1.1 | 875.5 ± 1.1 | 874.6 ± 1.1 | 873.4 ± 1.1 | 872.3 ± 1.2 | 871.2 ± 1.2 | 870.2 ± 1.2 | 869.1 ± 1.2 | 867.9 ± 1.3
313.15 K, 40000 kPa | 881.1 ± 1.1 | 879.9 ± 1.1 | 878.7 ± 1.1 | 877.8 ± 1.1 | 876.6 ± 1.1 | 875.5 ± 1.2 | 874.5 ± 1.2 | 873.5 ± 1.2 | 872.4 ± 1.3 | 871.3 ± 1.3
